Experimental data from patent publication US8629328B2 (Monsanto Technology LLC, priority 2006, dated 2014).

Key:
[1] = system: transgenic soybean plants with DMO-encoding polynucleotide (Events 1-4); test: Greenhouse, post-V3 applications of different auxin-like herbicides, visual % injury; type: in vivo; conditions: for tolerance of DMO polynucleotide containing soybean: post-V3 application
Description: (§1) This was carried out by applying various concentrations of commercially available formulations of other auxin-like herbicides such as 2,4-D (Helena, Collierville, Tenn.), MCPA (Agriliance, St. Paul, Minn.), triclopyr (GARLON 3A; Dow Elanco, Indianapolis, Ind.), clopyralid (STINGER; Dow Elanco, Indianapolis, Ind.), picloram (TORDON 22K; Dow Elanco, Indianapolis, Ind.), or Banvel or CLARITY (BASF, Raleigh, N.C.) to DMO containing plant tissues or plants.
(§2) Transgenic soybean plants were obtained by Agrobacterium-mediated transformation of soybean explants with a DMO-encoding polynucleotide as described above for the events designated Events 1-4. A non-transgenic line was used as a control.
(§3) Applications were made when plants had reached V-3 stage.
(§4) Data were collected using a palm top computer and analyzed using standard statistical methods. The results shown in Table 10 clearly indicate tolerance of transgenic soybean to other auxin-like herbicides such as 2,4-D and MCPA relative to the non-transgenic line.

[2] = system: non-transgenic soybean plants; test: as above; type: in vivo
Description: as §1, §2, §3, §4

MARESTAIL (CA) Resistant = test: Control of marestail by dicamba or glyphosate, treated at rosette leaf stage; type: in vivo, Conyza canadensis; conditions: glyphosate formulation 2100 g/ha
Description: (§5) Marestail is one of the major weeds in a crop field. Marestail is effectively controlled by glyphosate, but the development of methods for controlling this common weed with other herbicides is important to minimize opportunities for herbicide tolerance to develop.

MARESTAIL (KY) Resistant = test: as above; type: in vivo, Conyza canadensis; conditions: glyphosate formulation 2100 g/ha
Description: as §5

Marestail Resistant (KY) = test: Dicamba, glyphosate and their combination on marestail; type: in vivo, Conyza canadensis; conditions: glyphosate formulation 200 g/ha

Structure (SMILES) | % injury at 21 DAT ([1]; Event 1, 280 g ae/ha post-V3) | % injury at 21 DAT ([1]; Event 1, 561 g ae/ha post-V3) | % injury at 21 DAT ([1]; Event 1, 1120 g ae/ha post-V3) | % injury at 21 DAT ([1]; Event 2, 280 g ae/ha post-V3) | % injury at 21 DAT ([1]; Event 2, 561 g ae/ha post-V3) | % injury at 21 DAT ([1]; Event 2, 1120 g ae/ha post-V3) | % injury at 21 DAT ([1]; Event 3, 280 g ae/ha post-V3) | % injury at 21 DAT ([1]; Event 3, 561 g ae/ha post-V3) | % injury at 21 DAT ([1]; Event 3, 1120 g ae/ha post-V3) | % injury at 21 DAT ([1]; Event 4, 280 g ae/ha post-V3) | % injury at 21 DAT ([1]; Event 4, 561 g ae/ha post-V3) | % injury at 21 DAT ([1]; Event 4, 1120 g ae/ha post-V3) | tolerance of DMO polynucleotide containing soybean [1] | % injury at 21 DAT ([2]; 280 g ae/ha post-V3) | % injury at 21 DAT ([2]; 561 g ae/ha post-V3) | % injury at 21 DAT ([2]; 1120 g ae/ha post-V3) | % injury at 14 DAT ([1]; Event 1, 280 g ae/ha post-V3) | % injury at 14 DAT ([1]; Event 1, 561 g ae/ha post-V3) | % injury at 14 DAT ([1]; Event 1, 1120 g ae/ha post-V3) | % injury at 14 DAT ([1]; Event 2, 280 g ae/ha post-V3) | further results
Cc1cc(Cl)ccc1OCC(=O)O [MCPA, (4-chloro-2-methylphenoxy)acetic acid] | 72.5% | 99.3% | 100.0% | 55.0% | 95.0% | 99.7% | 55.0% | 95.8% | 100.0% | 88.3% | 98.8% | 100.0% | tolerant to low levels | 93.0% | 98.3% | 100.0% |  |  |  |  | 
O=C(O)COc1ccc(Cl)cc1Cl [2,4-D, (2,4-dichlorophenoxy)acetic acid] | 58.3% | 75.0% | 100.0% | 64.2% | 94.7% | 100.0% | 40.0% | 85.0% | 100.0% | 45.8% | 84.2% | 100.0% | tolerant to low levels | 86.8% | 100.0% | 100.0% |  |  |  |  | 
O=C(O)CNCP(=O)(O)O [glyphosate, N-phosphonomethylglycine] |  |  |  |  |  |  |  |  |  |  |  |  |  |  |  |  |  |  |  |  | % Injury (21 DAT) (MARESTAIL (CA) Resistant): about 77%; % Injury (21 DAT) (MARESTAIL (KY) Resistant): about 91%; % Injury (18 DAT) (Marestail Resistant (KY)): 6%
Nc1c(Cl)c(Cl)nc(C(=O)O)c1Cl [Picloram, 4-amino-3,5,6-trichloro-2-pyridinecarboxylic acid] |  |  |  |  |  |  |  |  |  |  |  |  |  |  |  |  | 99.7% | 100.0% | 100.0% | 99.3% | % injury at 14 DAT ([1]; Event 2, 561 g ae/ha post-V3): 100.0%; % injury at 14 DAT ([1]; Event 2, 1120 g ae/ha post-V3): 100.0%; % injury at 14 DAT ([1]; Event 3, 280 g ae/ha post-V3): 99.3%; % injury at 14 DAT ([1]; Event 3, 561 g ae/ha post-V3): 99.7%; % injury at 14 DAT ([1]; Event 3, 1120 g ae/ha post-V3): 100.0%; % injury at 14 DAT ([1]; Event 4, 280 g ae/ha post-V3): 99.3%; % injury at 14 DAT ([1]; Event 4, 561 g ae/ha post-V3): 100.0%; % injury at 14 DAT ([1]; Event 4, 1120 g ae/ha post-V3): 100.0%; % injury at 14 DAT ([2]; 280 g ae/ha post-V3): 99.3%; % injury at 14 DAT ([2]; 561 g ae/ha post-V3): 100.0%; % injury at 14 DAT ([2]; 1120 g ae/ha post-V3): 100.0%
O=C(O)c1nc(Cl)ccc1Cl [Clopyralid, 3,6-dichloro-2-pyridinecarboxylic acid] |  |  |  |  |  |  |  |  |  |  |  |  |  |  |  |  | 99.2% | 100.0% | 100.0% | 98.2% | % injury at 14 DAT ([1]; Event 2, 561 g ae/ha post-V3): 99.7%; % injury at 14 DAT ([1]; Event 2, 1120 g ae/ha post-V3): 100.0%; % injury at 14 DAT ([1]; Event 3, 280 g ae/ha post-V3): 99.3%; % injury at 14 DAT ([1]; Event 3, 561 g ae/ha post-V3): 100.0%; % injury at 14 DAT ([1]; Event 3, 1120 g ae/ha post-V3): 100.0%; % injury at 14 DAT ([1]; Event 4, 280 g ae/ha post-V3): 99.7%; % injury at 14 DAT ([1]; Event 4, 561 g ae/ha post-V3): 100.0%; % injury at 14 DAT ([1]; Event 4, 1120 g ae/ha post-V3): 100.0%; % injury at 14 DAT ([2]; 280 g ae/ha post-V3): 99.3%; % injury at 14 DAT ([2]; 561 g ae/ha post-V3): 100.0%; % injury at 14 DAT ([2]; 1120 g ae/ha post-V3): 100.0%
